The values that follow come from article PMC12175894 (Science Advances, 2025).

Substitutions are numbered along the chain they refer to. Read-outs that look alike come from different tables or passages of the source.

One assay deals with T1, 5-HT1AR Y96^2.64A (Homo sapiens, UniProt P08908, Y96A).
T1 sequence (P08908 1-422 Y96A): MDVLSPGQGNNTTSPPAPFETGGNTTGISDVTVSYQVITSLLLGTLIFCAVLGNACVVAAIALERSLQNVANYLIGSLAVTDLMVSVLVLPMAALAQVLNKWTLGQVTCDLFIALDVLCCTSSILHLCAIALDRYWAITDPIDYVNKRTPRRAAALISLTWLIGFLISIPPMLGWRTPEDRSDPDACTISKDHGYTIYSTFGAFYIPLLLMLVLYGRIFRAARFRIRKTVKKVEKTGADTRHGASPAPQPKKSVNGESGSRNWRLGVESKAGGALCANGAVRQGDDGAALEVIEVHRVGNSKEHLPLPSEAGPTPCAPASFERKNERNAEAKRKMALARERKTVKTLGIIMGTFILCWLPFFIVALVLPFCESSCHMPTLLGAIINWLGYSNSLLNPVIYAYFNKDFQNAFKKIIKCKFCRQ
As to the kind of experiment: GloSensor inhibition of cAMP accumulation in HEK293AΔGs. The assay is classed as cell-based. The conditions noted are these: for Emax: read-out: Emax [% ± SEM], inhibition of cAMP accumulation. For orientation: cAMP levels reflect the balance of adenylyl cyclase and phosphodiesterase activity.

For another assay, the target named is T2, 5-HT1AR (Homo sapiens, UniProt P08908).
T2 sequence (P08908 1-422): T1 sequence (P08908 1-422 Y96A) with A96Y
Nature of the assay: BRET-based cAMP assay (CAMYEL biosensor) in CHO-K1 cells. It is filed as cell-based.

The next assay addresses T3, 5-HT1AR Q97^2.65A (Homo sapiens, UniProt P08908, Q97A).
T3 sequence (P08908 1-422 Q97A): T1 sequence (P08908 1-422 Y96A) with A96Y, Q97A
As to the kind of experiment: GloSensor inhibition of cAMP accumulation in HEK293AΔGs. The assay is classed as cell-based. Particulars: for Emax: read-out: Emax [% ± SEM], inhibition of cAMP accumulation.

The next assay addresses T4, 5-HT1AR + Gαz (Homo sapiens, UniProt P08908).
T4 construct: host or cells: HEK293AΔGi/o
Nature of the assay: GloSensor cAMP in HEK293AΔGi/o co-transfected with Gαz. The assay is classed as cell-based.

Assay [1] has as its target T5, 5-HT1AR F112^3.28W + M92^2.60F (Homo sapiens, UniProt P08908, F112W/M92F).
T5 sequence (P08908 1-422 M92F/F112W): T1 sequence (P08908 1-422 Y96A) with M92F, A96Y, F112W
As to the kind of experiment: β-arrestin 2 recruitment, enhanced bystander BRET in HEK293T with GRK2. Particulars: HEK-293T; read-out: Emax [% ± SEM], β-arrestin 2 recruitment. The assay is classed as cell-based. Background: Arrestin recruitment assays detect the binding of arrestin to an activated receptor.

In a further assay the target is T6, 5-HT1AR wildtype (Homo sapiens, UniProt P08908).
T6 construct: host or cells: HEK293T, HEK293A, HEK293AΔGs, HEK293AΔGi/o, HEK293AΔARRB1/B2
T6 sequence (P08908 1-422): T1 sequence (P08908 1-422 Y96A) with A96Y
As to the kind of experiment: GloSensor inhibition of cAMP accumulation in HEK293AΔGs. It is filed as cell-based.

Another assay concerns the target T7, 5-HT1AR F112^3.28W (Homo sapiens, UniProt P08908, F112W).
T7 sequence (P08908 1-422 F112W): T1 sequence (P08908 1-422 Y96A) with A96Y, F112W
As to the kind of experiment: β-arrestin 2 recruitment, enhanced bystander BRET in HEK293T with GRK2. Particulars: HEK-293T, read-out: Emax [% ± SEM], β-arrestin 2 recruitment.

T4 sequence (P08908 whole entry): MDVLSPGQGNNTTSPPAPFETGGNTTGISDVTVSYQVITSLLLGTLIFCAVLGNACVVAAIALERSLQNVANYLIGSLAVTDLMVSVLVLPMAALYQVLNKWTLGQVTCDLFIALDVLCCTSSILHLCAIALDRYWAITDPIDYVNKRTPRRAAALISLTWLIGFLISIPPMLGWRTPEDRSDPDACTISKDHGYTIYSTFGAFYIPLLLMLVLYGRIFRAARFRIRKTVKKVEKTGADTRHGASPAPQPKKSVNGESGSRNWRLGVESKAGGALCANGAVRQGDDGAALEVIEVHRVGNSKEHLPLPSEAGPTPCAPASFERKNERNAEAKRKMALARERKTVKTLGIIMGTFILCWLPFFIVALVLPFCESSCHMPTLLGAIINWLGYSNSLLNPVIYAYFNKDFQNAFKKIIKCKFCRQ
T4 sequence (P19086 2-355 partner limits assumed): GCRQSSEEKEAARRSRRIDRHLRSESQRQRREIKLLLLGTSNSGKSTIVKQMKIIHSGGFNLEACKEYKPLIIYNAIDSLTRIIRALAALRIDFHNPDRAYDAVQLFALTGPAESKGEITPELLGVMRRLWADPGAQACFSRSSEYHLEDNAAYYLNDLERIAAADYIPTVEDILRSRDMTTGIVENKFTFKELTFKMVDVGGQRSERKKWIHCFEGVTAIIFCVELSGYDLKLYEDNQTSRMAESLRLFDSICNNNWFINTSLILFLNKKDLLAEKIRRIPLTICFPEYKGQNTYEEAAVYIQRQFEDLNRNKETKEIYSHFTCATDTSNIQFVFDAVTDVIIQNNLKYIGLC

One may read the EC50 as the concentration that produces a half-maximal response. Usually Emax stands for the greatest response seen or fitted, relative to the assay's reference. On to `COc1ccccc1OCCNCCCOc1ccc2c(c1)NC(=O)CO2` [ST171], for which the EC50 came out at 14 ± 3.5 nM on 5-HT1AR Y96^2.64A (HEK293AΔGs, Y96A, read-out: EC50 [nM ± SEM], inhibition of cAMP accumulation); 0.88 ± 0.3 nM at 5-HT1AR (CHOK1, CAMYEL, wildtype; read-out: EC50 left [nM±SEM], inhibition of cAMP accumulation); 8 ± 0.9 nM on 5-HT1AR Q97^2.65A (HEK293AΔGs, Q97A, read-out: EC50 [nM ± SEM], inhibition of cAMP accumulation); 5.3 ± 0.8 nM at 5-HT1AR wildtype (HEK293AΔGs, wildtype, read-out: EC50 [nM ± SEM], inhibition of cAMP accumulation). Further, the Emax is 76 ± 2% at 5-HT1AR Y96^2.64A; less than 5% at 5-HT1AR (CHO-K1, CAMYEL, PTX addition; read-out: Emax, cAMP effect in the presence of PTX); 87 ± 1% at 5-HT1AR (CHO-K1, read-out: Emax [%±SEM], inhibition of cAMP accumulation); 79 ± 6% at 5-HT1AR Q97^2.65A; 93% at 5-HT1AR + Gαz; less than 5% in assay [1]. For the same compound, the Emax on 5-HT1AR wildtype (read-out: Emax [% ± SEM], inhibition of cAMP accumulation, HEK293AΔGs, wildtype, relative to serotonin) was 73%; on 5-HT1AR F112^3.28W, less than 5%. Also, the “Emax [% ± SEM], inhibition of cAMP accumulation” value on 5-HT1AR wildtype (HEK293AΔGs, wildtype, relative to serotonin) was 74 ± 3%.
Turning to `Cc1ccc(CNCC2(F)CCN(C(=O)c3ccc(F)c(Cl)c3)CC2)nc1` [befiradol, reference compound], the Emax came out at 104 ± 5% at 5-HT1AR Y96^2.64A; 91 ± 3% at 5-HT1AR (CHO-K1; read-out: Emax [%±SEM], inhibition of cAMP accumulation); 91 ± 7% at 5-HT1AR Q97^2.65A; 95 ± 2% on 5-HT1AR + Gαz; 83 ± 4% in assay [1]; 87 ± 3% at 5-HT1AR wildtype (read-out: Emax [% ± SEM], inhibition of cAMP accumulation). On 5-HT1AR F112^3.28W, the Emax amounted to 86 ± 3%. Moreover, at 5-HT1AR (CHOK1, CAMYEL; relative to serotonin maximum inhibition), the “Esat [%±SEM], efficacy at saturating ligand concentrations” value was determined as 65 ± 4%.
